Measurements taken from patent US8168199B2, “Dipeptidyl peptidase IV inhibitors for the treatment of schizophrenia and depression” (priority 2000, dated 2012).

Tested on: Male WistarF/Han (WF) rats
Test: Elevated plus maze (EPM) testing, i.c.v. P32/98
Assay type: in vivo, rat
Protocol: Animals. […]
Elevated plus maze (EPM) testing. […] The following parameters were calculated: Total numbers of arm entries (TA); entries to closed arms (CA); entries to open arms (OA); percentage frequency of entries to open arms (% OA: OA×100/TA); total trial duration (TT): 300 s; duration of stay in closed arms (closed time; CLT); percentage share of CLT in total arms-stay duration (CLT×100/AT); duration of stay in open arms (open time; OT) and percentage share of OT in total arm-stay duration (% OT: OT×100/AT). In addition to the standard spatiotemporal measurements, “time spent and percentage of time on the central square” were recorded (center time, CT: duration of stay on platform in seconds; percentage share of CT in trial duration, % CT: CT×100/TT). […]

## CC[C@H](C)[C@H](N)C(=O)N1CCSC1 [P32/98]
i.c.v. aCSF, 0.05, 5, 500 nmol
  effect of treatment on percentage of time spent on the open arms (analysis of variance): significant effect
i.c.v. low dose 50 pmol, 60 min before test, vs aCSF
  percentage of time spent on the open arms of the EPM: increased
